From US7576099B2, “Amide derivatives as ion-channel ligands and pharmaceutical compositions and methods of using the same” (Renovis, Inc., priority 2005, dated 2009)

Experiments:
VR1 [1] = biological target: T1, VR1 (Homo sapiens, UniProt Q8NER1); assay: Calcium uptake assay (Fura2, Flex Station) in HEK 293 cells expressing hVR1; format: cell-based; design: expressed in transfected cells; host or cells: T-REx HEK 293 (Invitrogen), pcDNA5/TO vector, doxycycline induced; settings: for inhibition at 0.3 µM: HEK293, read-out: Low pH % Inhib. @ 0.3 μM; for inhibition of the Capsaicin induced intracellular calcium response (FIGS. 2-6): 3 nM compound, capsaicin as agonist, calcium uptake assay method
Target sequence in this assay (Q8NER1 whole entry): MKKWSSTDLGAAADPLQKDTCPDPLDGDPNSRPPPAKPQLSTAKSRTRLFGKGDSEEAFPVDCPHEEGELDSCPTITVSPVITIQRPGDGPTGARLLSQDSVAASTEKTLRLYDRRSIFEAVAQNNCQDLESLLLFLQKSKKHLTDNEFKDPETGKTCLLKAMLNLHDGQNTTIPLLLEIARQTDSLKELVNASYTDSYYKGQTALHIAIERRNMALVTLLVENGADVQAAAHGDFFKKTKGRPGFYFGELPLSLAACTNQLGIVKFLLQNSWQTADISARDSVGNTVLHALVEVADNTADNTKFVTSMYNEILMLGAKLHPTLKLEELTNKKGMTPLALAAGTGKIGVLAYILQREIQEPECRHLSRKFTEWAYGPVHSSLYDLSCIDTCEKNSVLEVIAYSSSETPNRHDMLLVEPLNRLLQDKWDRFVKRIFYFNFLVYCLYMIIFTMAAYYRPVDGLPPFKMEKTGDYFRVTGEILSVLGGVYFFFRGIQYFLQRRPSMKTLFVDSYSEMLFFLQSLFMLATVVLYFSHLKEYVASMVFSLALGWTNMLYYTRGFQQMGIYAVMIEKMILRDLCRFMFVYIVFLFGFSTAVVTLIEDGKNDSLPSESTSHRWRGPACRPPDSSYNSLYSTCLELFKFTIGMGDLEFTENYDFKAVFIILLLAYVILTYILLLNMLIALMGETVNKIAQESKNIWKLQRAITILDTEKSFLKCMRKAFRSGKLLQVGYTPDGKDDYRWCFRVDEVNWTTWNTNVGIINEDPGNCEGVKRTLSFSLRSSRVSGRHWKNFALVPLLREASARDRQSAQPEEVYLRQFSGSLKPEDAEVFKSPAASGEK

VR1 receptor = assay: Calcium imaging assay in DRG neurons (Example 1); format: cell-based; settings: 3 nM compound
Protocol: Therefore the functional activity of compounds at the VR1 receptor may be determined by measuring changes in intracellular calcium levels in neurons such as the dorsal root ganglion. […] Prior to assay, cells were loaded with 5 μg/ml Fura2 in normal saline solution at 37° C. for 40 minutes. Cells were then washed with normal saline to remove dye before commencement of the experiment. The plated neurons were transferred into a chamber on the stage of a Nikon eclipse TE300 microscope after which neurons were allowed to attain a stable fluorescence for about 10 minutes before beginning the experiment. The assay consists of two stages, a pretreatment phase followed by a treatment phase. First, a solution of the test compound was added from a multivalve perfusion system to the cells for 1 minute (pretreatment). […] Fura2 was excited at 340 and 380 nm to indicate relative calcium ion concentration. Changes in wavelength measurements were made throughout the course of the experiment. The fluorescence ratio was calculated by dividing fluorescence measured at 340 nm by that at 380 nm. Data were collected using Intelligent Imaging's Slidebook software.

VR1 [2] = biological target: T1, VR1; assay: Acid stimulation assay (FDSS 6000, intracellular calcium); format: cell-based; design: host or cells: only 'the cell suspension' is mentioned; settings: final assay buffer pH5.8, 15 minutes pre-incubation
Protocol: The Acid-induced changes in the intracellular calcium concentration were monitored using FDSS 6000 (Hamamatsu Photonics, Japan), a fluorometric imaging system. The cell suspension in resting buffer (HBSS supplemented with 10 mM HEPES, pH 7.4) was pre-incubated with varying concentrations of the test compounds or resting buffer (buffer control) for 15 minutes at room temperature under dark conditions. The cells were automatically added the stimulating solution (HBSS supplemented with MES, final assay buffer pH5.8) by the FDSS 6000.
Target sequence in this assay (Q8NER1 whole entry, species assumed): as the sequence (Q8NER1 whole entry) above

[3] = Half-life in human liver microsomes (HLM); format: in vitro ADME; settings: human liver microsomes (HLM, HL101), pH 7.4, 1 μM compound, 0.78 mg/mL HLM, NADPH, 37° C.
Protocol: Test compounds (1 μM) were incubated with 3.3 mM MgCl2 and 0.78 mg/mL HLM (HL101) in 100 mM potassium phosphate buffer (pH 7.4) at 37° C. on the 96-deep well plate. The reaction mixture was split into two groups, a non-P450 and a P450 group. NADPH was only added to the reaction mixture of the P450 group. An aliquot of samples of P450 group was collected at 0, 10, 30, and 60 min time point, where 0 min time point indicated the time when NADPH was added into the reaction mixture of P450 group. An aliquot of samples of non-P450 group was collected at −10 and 65 min time point. Collected aliquots were extracted with acetonitrile solution containing an internal standard. The precipitated protein was spun down in centrifuge (2000 rpm, 15 min). The compound concentration in supernatant was measured by LC/MS/MS system.
The half-life value was obtained by plotting the natural logarithm of the peak area ratio of compounds/internal standard versus time. The slope of the line of best fit through the points yields the rate of metabolism (k). […]
Exemplary compounds of the invention were tested (1 μM), and were incubated with 3.3 mM MgCl2 and 0.78 mg/mL HLM (HL101) in 100 mM potassium phosphate buffer (pH 7.4) at 37° C. on the 96-deep well plate. […] The compound concentration in supernatant was measured by LC/MS/MS system. […]

[4] = 0.3 μM compound, low pH (protons) as agonist, HEK 293 cells expressing hVR1

Row | SMILES | inhibition at 0.3 µM (VR1 [1]; [4]) [%] | other results
1 | CC(C)(C)C#Cc1ccc(C(=O)Nc2cnc3ccccc3c2)cn1 [Compound 24] | 101 | –
2 | Cc1cc(/C=C/C(F)(F)F)ccc1C(=O)Nc1ccc2sc(CO)nc2c1 [Compound 225] | – | inhibition of the Capsaicin induced intracellular calcium response (FIG. 1) (VR1 receptor): significant inhibition; inhibition of the Capsaicin induced intracellular calcium response (FIG. 1) (VR1 receptor; listed as compound 225): reduced; % inhibition of capsaicin induced calcium influx (VR1 receptor; treatment time 20 sec, capsaicin 250 nM): >75%
3 | O=C(Oc1ccc2c(c1)OC(CO)CO2)c1ccc(C#CC2CC2)cc1 (stereo not drawn) [Compound 86] | 83 | –
4 | O=C(Nc1ccc2c(c1)OCCN2)c1ccc(C#CC(F)(F)F)cc1 [Compound 70] | – | Low pH % Inhib. @ 0.3 μM (VR1 [1]; [4]): 185%; IC50 (VR1 [2]): 5 nM
5 | O=C(Nc1ccc2c(c1)OCCN2)c1ccc(/C=C/C(F)(F)F)cc1 [Compound 63] | 123 | half-life at 1 μM [3]: 24 min
6 | O=C1COc2cc(NC(=O)c3ccc(/C=C/C(F)(F)F)cc3)ccc2N1 [Compound 61] | 10 | –
7 | Cc1cc(/C=C/C(F)(F)F)ccc1C(=O)Nc1cnc2c(c1)OCC(CO)N2 (stereo not drawn) [Compound 233] | – | inhibition of the Capsaicin induced intracellular calcium response (FIGS. 2-6) (VR1 [1]): significant inhibition
8 | C/C(=C\C(F)(F)F)c1ccc(C(=O)Nc2ccc3c(c2)OCCN3)cc1 [Compound 96] | – | inhibition of the Capsaicin induced intracellular calcium response (FIGS. 2-6) (VR1 [1]): significant inhibition
9 | O=C(Nc1ccc2c(c1)OCC(CO)O2)c1ccc(/C=C/C(F)(F)F)cc1 (single isomer, unassigned) [Compound 108] | – | IC50 (VR1 [2]): 5 nM
10 | CN1CCC(C)(C)c2ccc(NC(=O)c3ccc(C#CC(C)(C)C)cc3)cc21 [Compound 59] | 83 | –
11 | CC(C)(C)C#Cc1ccc(C(=O)Nc2cccc3cnccc23)cc1OCCN1CCOCC1 [Compound 60] | 69 | half-life at 1 μM [3]: 21 min
12 | Cc1cc(/C=C/C(F)(F)F)ccc1C(=O)NC1=CC2CNCCC2N=C1 (stereo not drawn) [Compound 229] | 54 | –
13 | O=C(Nc1cccc2cnccc12)c1ccc(C#CC(F)(F)F)cc1 [Compound 45] | – | inhibition of the Capsaicin induced intracellular calcium response (FIGS. 2-6) (VR1 [1]): significant inhibition
14 | Cc1cc(/C=C/C(F)(F)F)ccc1C(=O)Nc1cnc2ccccc2c1 [Compound 187] | – | inhibition of the Capsaicin induced intracellular calcium response (FIGS. 2-6) (VR1 [1]): significant inhibition
15 | Cc1cc(C#CC(C)(C)C)ccc1C(=O)Nc1ccc2c(c1)OCC(CO)N2 (stereo not drawn) [Compound 167] | – | inhibition of the Capsaicin induced intracellular calcium response (FIGS. 2-6) (VR1 [1]): significant inhibition
16 | Cc1cc2c(NC(=O)c3ccc(/C=C/C(F)(F)F)cc3)cccc2nn1 [Compound 113] | 9 | –

Now from value to compound, other results behind:

Row | inhibition at 0.3 µM (VR1 [1]; [4]) [%] | SMILES | other results
17 | 10 | CC1(C)CNc2cc(NC(=O)c3ccc(/C=C/C(F)(F)F)cc3)ccc2O1 [Compound 64] | –
18 | 87 | Cc1cc(/C=C/C(F)(F)F)ccc1C(=O)Nc1cnc2c(c1)OCC(O)CN2 (stereo not drawn) [Compound 189] | –
19 | 19 | CC1(C)Oc2ccc(NC(=O)c3ccc(/C=C/C(F)(F)F)cc3)cc2NC1=O [Compound 58] | –
20 | 98 | O=C(Oc1ccc2c(c1)OCC(CO)O2)c1ccc(C#CC2CC2)cc1 (stereo not drawn) [Compound 87] | –
21 | 58 | O=C1COc2ccc(NC(=O)c3ccc(/C=C/C(F)(F)F)cc3)cc2N1 [Compound 57] | –
22 | 14 | O=C(Nc1ccc2c(c1)NCCO2)c1ccc(/C=C/C(F)(F)F)cc1 [Compound 62] | –
